These results are taken from patent US3987180A, “1-Propyl-imidazolyl antimycotic compositions and methods of treating mycoses” (Bayer Aktiengesellschaft, priority 1973, dated 1976).

Experiment [1] relates to Trichophyton mentagrophytes. The experiment in a line: Antimycotic activity in vitro (series dilution test), Trichophyton mentagrophytes. Format: cell-based. As to conditions: nutrient medium, 28° C, 24 to 96 hours, read-out: Minimum inhibitory concentration (MIC), Trichophyton mentagrophytes.
Experiment [2] concerns Candida albicans. The experiment in a line: Antimycotic activity in vitro (series dilution test), Candida albicans. As to conditions: nutrient medium, 28° C, 24 to 96 hours, read-out: Minimum inhibitory concentration (MIC), Candida albicans. The experiment is classed as cell-based.
The test system of experiment [3] is Penicillium commune. The experiment in a line: Antimycotic activity in vitro (series dilution test), Penicillium commune. The following applies: nutrient medium, 28° C, 24 to 96 hours, read-out: Minimum inhibitory concentration (MIC), Penicillium commune. Format: cell-based.
For experiment [4], the system named is Aspergillus niger. The experiment in a line: Antimycotic activity in vitro (series dilution test), Aspergillus niger. Format: cell-based. As to conditions: nutrient medium, 28° C, 24 to 96 hours, read-out: Minimum inhibitory concentration (MIC), Aspergillus niger.
The subject of experiment [5] is Trichophyton mentagrophytes. The experiment in a line: Topical application against trichophytosis in guinea pigs. Format: in vivo. The following applies: 1% strength solution applied locally for 11 to 14 days. The source says:
a. Topical application against trichophytosis in guinea pigs.
A 1% strength solution of the active compounds in a dimethylsulphoxide/glycerol/water mixture (1:3:6) or in polyethylene glycol 400 was applied locally for 11 to 14 days after the trichophytosis (pathogen: Trichophyton mentagrophytes) had been produced experimentally.

For experiment [6], the system named is Trichophyton quinckeanum. The experiment in a line: Oral administration against Quinckeanum trichophytosis in white mice. The experiment is classed as in vivo. As to conditions: 100 mg/kg orally twice daily up to the eighth day of the infection. On the procedure:
b. Oral administration against Quinckeanum trichophytosis in white mice By using doses of 100 mg/kg of body weight, administered orally twice daily up to the eighth day of the infection, it was possible to suppress the development of the Quinckeanum infection in mice.

SMILES strings stand for the structures. ≈ marks a conversion by molar mass, not a printed value.

With `CC(C)(C)C(O)C(Cn1ccnc1)Oc1ccc(Cl)cc1` (stereo not shown) [Example 1, 1-(imidazol-1-yl)-2-(4-chlorophenoxy)-3-hydroxy-4,4-dimethyl-pentane], the MIC is 32 µg/mL (≈ 104 µM) in experiment [1], 64 µg/mL (≈ 207 µM) in experiment [2] and more than 64 µg/mL in experiment [3].
Turning to `CC(C)(C)C(O)(Cc1ccccc1)C(Cn1ccnc1)Oc1ccc(Cl)cc1` (stereo not shown) [Example 2, 1-(imidazol-1-yl)-2-(4-chlorophenoxy)-3-benzyl-3-hydroxy-4,4-dimethyl-pentane], the MIC in experiment [1] is less than 1 µg/mL; in experiment [2] it was 64 µg/mL (≈ 160 µM); in experiment [3], more than 64 µg/mL; in experiment [4], more than 64 µg/mL.
As to `CC(C)(C)C(O)C(Cn1ccnc1)Oc1ccccc1Cl` (stereo not shown) [Example 3], the MIC in experiment [1] is 32 µg/mL (≈ 104 µM); in experiment [2], 64 µg/mL (≈ 207 µM); in experiment [3] it was more than 64 µg/mL.
In the case of `CC(C)(C)C(O)C(Cn1ccnc1)Oc1cccc(Cl)c1` (stereo not shown) [Example 4], the figures for the MIC in experiment [1], in experiment [2] and in experiment [3] were more than 64 µg/mL, 64 µg/mL (≈ 207 µM) and more than 64 µg/mL, respectively.
Turning to `CC(C)(C)C(O)C(Cn1ccnc1)Oc1ccc(Cl)cc1Cl` (stereo not shown) [Example 5], the MIC in experiment [1] was 4 µg/mL (≈ 11.7 µM); in experiment [2], 64 µg/mL (≈ 186 µM); in experiment [3] it was more than 64 µg/mL; in experiment [4], 64 µg/mL (≈ 186 µM).
For the compound `CC(C)(C)C(O)C(Cn1ccnc1)Oc1ccc(F)cc1` (stereo not shown) [Example 6], the results for the MIC in experiment [1], in experiment [2] and in experiment [3] were 64 µg/mL (≈ 219 µM), 64 µg/mL (≈ 219 µM) and more than 64 µg/mL, respectively.
Turning to `Cc1cc(Cl)ccc1OC(Cn1ccnc1)C(O)C(C)(C)C` (stereo not shown) [Example 7], the MIC in experiment [1] is 4 µg/mL (≈ 12.4 µM); in experiment [2], 64 µg/mL (≈ 198 µM); in experiment [3], more than 64 µg/mL; in experiment [4], more than 64 µg/mL. Further, in experiment [5], the “Action (topical, trichophytosis in guinea pigs)” value was “xx (healing of the infection inside 4-6 days after infection.)”. In addition, the “Action against Trichophyton quinckeanum” value in experiment [6] is on record as “xx (fewer than 30% of the animals showed symptoms of the infection.)”.
For the compound `CC(C)(C)C(O)C(Cn1ccnc1)Oc1ccccc1` (stereo not shown) [Example 8], the MIC in experiment [1] is 32 µg/mL (≈ 117 µM); in experiment [2], 64 µg/mL (≈ 233 µM); in experiment [3], more than 64 µg/mL.
Take `CC(C)(C)C(C)(O)C(Cn1ccnc1)Oc1ccc(Cl)cc1` (stereo not shown) [Example 9]: the results for the MIC in experiment [1], in experiment [2] and in experiment [3] were 8 µg/mL (≈ 24.8 µM), 64 µg/mL (≈ 198 µM) and more than 64 µg/mL, respectively. Moreover, the “Action (topical, trichophytosis in guinea pigs)” value in experiment [5] is recorded as “xx (healing of the infection inside 4-6 days after infection.)”. The “Action against Trichophyton quinckeanum” value in experiment [6] is given as “xx (fewer than 30% of the animals showed symptoms of the infection.)”.
